Patent US20160324884A1, “TREATMENT OF DIABETES WITH PENTACYCLIC TRITERPENOID SAPONIN COMPOUNDS FROM SZECHUAN MELANDIUM ROOT” (priority 2013, published 2016)
Entries after “also recorded” stand apart in the source; their conditions may differ.

Legend:
KK^Ay mice [1] = assay: Effects of Wacao saponins on glycemia in KK^Ay T2DM mice (Example 2); assay type: in vivo; conditions: for glycemia (fasting tail blood glucose), hypoglycemic activity: 2.0 mg/kg BW Sc daily, after 1 week, vs model group; for anti-hyperglycemia effect, compounds compared with each other: 2.0 mg/kg BW Sc, 2 weeks, ranking
Excerpt: (§1) 80 male KK^Ay mice (12 weeks of age, License NO. SCXK (BJ) 2009-0015, Beijing Huafukang Biology Technology Co. Ltd.) and 10 male normal C57BL/6 mice (12 weeks of age, License NO. SCXK (BJ) 2009-0015, Beijing Huafukang Biology Technology Co. Ltd.) were adaptively bred for one week, and then used in the pharmacological experiment.
The animals were housed individually in wood-chip-bedded plastic cages. Germ-free and high-fat diets (Beijing Huafukang Biology Technology Co. Ltd.) were used to feed the KK^Ay mice, and the standard laboratory chows were used to feed normal C57BL/6 mice. All the animals had free access to food and water.
80 KK^Ay mice were adaptively bred for 1 week, and then randomly assigned into 8 groups: Model group, Compound (1) group, Compound (2) group, Compound (3) group, Compound (4) group, Compound (7) group, Compound (8) group and metformin group, 10 mice per group. 10 normal C57BL/6 mice were used as the control group. KK^Ay mice were fed with the high-fat diet, and the control group was fed with the normal control diet. The control and model groups were hypodermically injected with sterile water, 6 medicated groups were hypodermically injected with 6 kinds of Wacao saponins, the Compounds (1), (2), (3), (4), (7) and (8), and the positive group (metformin group) was irrigated per oral. All groups were administrated at 9 am for 2 weeks. The administrating volume is 10 ml/kg BW and the administration dosage is shown in Table3.
All mice of the fasting tail blood glucose level were measured weekly using One Touch ULTRA Glucometer (Life Scan Johnson and Johnson, USA).
Each compound of Wacao saponins was dissolved into sterile water and sterilized with filtration for Sc. The metformin was dissolved into sterile water for lg. The control and model group mice were injected with sterile water, Sc. All the animals were treated at 9 am for 2 weeks.
Overnight fasting tail blood glucose level was measured weekly using One Touch ULTRA Glucometer and measured for twice.
Each group was administrated for 2 weeks (14 days) and then the experiment was terminated.
Results are expressed as means±SD. Statistical analysis were analyzed by using SPSS 10.0 software. Data were evaluated with analysis of variance.

KK^Ay mice [2] = assay: Glycemia in KK^Ay mice during treatment and after withdrawal (Example 3); assay type: in vivo; conditions: for descending rates of blood glucose: T2DM mice, 2 mg/kg, two weeks after subcutaneous injection
Excerpt: as §1, with “60” for “80”, “10 normal” for “10”, “male” for “male normal”, “following” for “pharmacological”
(§2) 60 KK^Ay mice were adaptively bred for 1 week, and then randomly assigned into 6 groups: Model group, Compound (1) group, Compound (2) group, Compound (3) group, Compound (4) group, and metformin group, 10 mice per group. 10 normal C57BL/6 mice were used for the control group. KK^Ay mice were in a high-fat diet, and the control normal mice were in a normal control diet. The control and model groups were hypodermically injected with sterile water, the 6 medicated groups mice were subcutaneously injected with […] Wacao saponins, (Compounds (1), (2), (3) and (4)) respectively, and the positive group was administered metformin by gavage. All mice were administrated at 9 am for 2 weeks and the administration volume is 10 ml/kg BW.
(§3) Compound (1), (2), (3) and (4) were respectively dissolved into sterile water, and sterilized with filtration for Sc. to the medication groups. The metformin was dissolved into sterile water for lg. to the positive control group. Control and model groups animals were injected with sterile water (10 ml/kg BW), Sc. All the animals were treated daily at 9 am for 2 weeks (14 days).
(§4) Blood detection: Blood glucose was measured weekly. Overnight fasting glycemia level was measured with One Touch ULTRA Glucometer for the tail blood test. At the end of the experiment, blood serum was collected for measuring levels of fasting blood glucose and insulin, and the insulin sensitivity index (ISI) was calculated. At the same time, hepatic tissues and skeletal muscles of mice were taken out to determine levels of hepatic and muscle glycogen by detection kits.
Termination of the experiment After administrating mice for 2 weeks (14 days), the experiment was terminated.
This experiment is to observe the anti-hyperglycemia effects of Wacao saponins on KK^Ay mice during and after the period of drug treatment, respectively.

KK^Ay mice [3] = assay: Hepatic and muscle glycogen in KK^Ay mice (Example 3); assay type: in vivo; conditions: 2.0 mg/kg Sc, after 2 weeks, vs model group
Excerpt: as §2
(§5) The body weight, food and water intake of each mouse was measured and recorded weekly throughout the course of the experiment. At the end of the experiment, collected the blood and separated serum, fasting blood glucose, insulin levels and insulin sensitivity index (ISI) were measured or calculated in each group. Liver, skeletal muscles of mice in each group were taken and weighed for detecting glycogen levels of the hepatic and muscles after mice being killed.
as §3, §4

normal ICR mice = assay: Glycemia in normal ICR mice (Example 4); assay type: in vivo; conditions: 2.0 mg/kg Sc, after 2 weeks, vs control group
Excerpt: 40 male ICR mice (20-22g, License NO. SCXK (BJ) 2011-0004, Beijing SPF Experimental Animal Technology Co. Ltd.) were adaptively bred for one week, and then used in the following experiment.
Animals were housed individually in wood-chip-bedded plastic cages and fed the standard laboratory chow. All the animals had ad libitum access to food and water.
40 ICR mice were adaptively bred for 1 week, and then randomly assigned into 4 groups: Model, Compound (1), Compound (2) and metformin group, 10 mice per group. All the animals were fed with normal food. Mice in the control group were hypodermically injected with sterile water. The treated groups were subcutaneously injected with Compounds (1) and (2), respectively. And the positive group was administrated metformin by gavage. All the animals were administrated at 9 am for 2 weeks, and the dose volume is 10 ml/kg BW.
Compound (1) and (2) were respectively dissolved into sterile water, and sterilized with filtration for Sc. The metformin was dissolved into sterile water for lg. to the positive control group. Mice in the control group were injected with sterile water (10 ml/kg BW), Sc. All the animals were treated at 9 am for 2 weeks (14 days).
Blood detection: Blood glucose was measured weekly. Overnight fasting glycemia was measured by One Touch ULTRA Glucometer (LifeScan Johnson and Johnson, USA) for the tail blood test.
End of the experiment: After mice being administrated for 2 weeks (14 days), the experiment was terminated.

T2DM rats [4] = assay: Fasting glycemia in T2DM model rats (high-fat emulsion + STZ, Example 5); assay type: in vivo, SD rats
Excerpt: 50 male SD rats (180-200 g, License NO. SCXK (BJ) 2011-0004, Beijing SPF Experimental Animal Technology Co. Ltd.) were adaptively bred for 1 week, and then used in the pharmacological experiment.
Animals were housed individually in wood-chip-bedded plastic cages and fed a standard laboratory chow. All the animals had ad libitum access to food and water.
(§6) 50 SD rats were adaptively bred for 1 week, and then randomly assigned into 5 groups: The control group, model group, Compound (1) group, Compound (2) group and glucobay group (the positive group), 10 rats per group. All the animals were in a standard laboratory diet. Control and model group animals were hypodermically injected with sterile water, test compound treatment groups were subcutaneously injected with the Compounds (1) and (2), and the positive group was administrated glucobay solution by gavage. All the animals were administrated at 9 am for 2 weeks, and the dose volume is 10 ml/kg BW.
(§7) The Compounds (1) and (2) were dissolved into sterile water, and sterilized with filtration, Sc. Glucobay was dissolved into sterile water, lg. Animals in the control and model groups were injected with sterile water (10 ml/kg BW), Sc. All the animals were treated at 9 am for 2 weeks (14 days).
(§8) All rats except the control group were administrated intragastrically with the high-fat emulsion (10 ml/kg) and weighed the body weight weekly. After weeks of administration, rats were intraperitoneally injected with streptozotocin (STZ, dissolved in citric acid-citrate sodium solution, pH 4.2, freshly prepared and used instantly, and store away from light) (30mg/kg). 4 days later, blood glucose level in rats was measured by tail blood test. Diabetes was defined as fasting blood glucose level>11.1 mmol/Lin in this experiment.
The blood glucose level was measured before and after administration of the treatment compounds for 2 weeks, respectively. The animals were fasted overnight and tail blood samples were taken. Fasting glycemia was measured by using One Touch ULTRA Glucometer or kits.

T2DM rats [5] = assay: Glycosylated serum protein (GSP) and liver and muscle glycogen in T2DM rats (Example 5); assay type: in vivo, SD rats; conditions: 4.0 mg/kg Sc vs glucobay 20 mg/kg lg
Excerpt: as §6, §7
as §8, with “Diabetes was defined as fasting blood glucose level>11.1 mmol/Lin in this experiment.” left out

KK^Ay mice [6] = assay: Body weight, food and water intake in KK^Ay mice (Example 3); assay type: in vivo; conditions: vs model group
Excerpt: as §1, with “60” for “80”, “10 normal” for “10”, “male” for “male normal”, “following” for “pharmacological”
The animals were housed individually in wood-chip-bedded plastic cages. Germ-free and high-fat diets (Beijing Huafukang Biology Technology Co. Ltd.) were used to feed the KK^Ay mice. All the animals had free access to food and water.
as §2, §5, §3
Measurement of food and water intake: 24 hours' food and water intake were measured by gravimetry once a week. It should be paid attention to recycling leakage of small forage into the feed box to ensure the accuracy of food intake.
Determination of body weight: The body weight of mice was measured and recorded once a week.
Results are shown as means±SD. Statistical analysis data were analyzed by using SPSS 10.0 software. Data were evaluated with analysis of variance.

KK^Ay mice [7] = assay: Blood insulin content and insulin sensitivity index (ISI) in KK^Ay mice (Example 3); assay type: in vivo; conditions: serum, after 2 weeks treatment, vs model group
Excerpt: as §2
as §5, with “Liver, skeletal muscles of mice in each group were taken and weighed for detecting glycogen levels of the hepatic and muscles after mice being killed.” left out
as §4, with “At the same time, hepatic tissues and skeletal muscles of mice were taken out to determine levels of hepatic and muscle glycogen by detection kits.” left out

| SMILES | glycemia (fasting tail blood glucose), hypoglycemic activity (KK^Ay mice [1]) | anti-hyperglycemia effect, compounds compared with each other (KK^Ay mice [1]) | descending rates of blood glucose (KK^Ay mice [2]) | muscle glycogen level (KK^Ay mice [3]) | glycemia level (normal ICR mice) | anti-hyperglycemia efficacy compared with glucobay (T2DM rats [4]; 4.0 mg/kg Sc vs glucobay 20 mg/kg lg, 2 weeks) | glycemia level (T2DM rats [4]; 4.0 mg/kg Sc, after 2 weeks, vs model group) | effect on glycogen levels and GSP levels compared with glucobay (T2DM rats [5]) | food intake (KK^Ay mice [6]; after 2 weeks, compounds 2.0 mg/kg Sc, metformin 500 mg/kg lg) | water intake (KK^Ay mice [6]; week 1, 2.0 mg/kg Sc) | anti-hyperglycemia effect compared with metformin (KK^Ay mice [2]; KK^Ay mice, 2.0 mg/kg Sc vs metformin 500 mg/kg lg) | glycemia level (KK^Ay mice [2]; KK^Ay mice, after 1 week, compounds 2.0 mg/kg Sc, metformin 500 mg/kg lg, vs model group) | insulin level (KK^Ay mice [7]) |
| --- | --- | --- | --- | --- | --- | --- | --- | --- | --- | --- | --- | --- | --- |
| CC(=O)OC1C(OC(=O)/C=C\c2ccc(C)cc2)C(C)OC(OC(=O)[C@@H]2CC(C)(C)C[C@@H]3C2[C@H](O)C[C@]2(C)C3C=C[C@@H]3[C@@]4(C)CC[C@H](OC5OC(C(=O)O)C(O)C(OC6OCC(O)C(O)C6O)C5OC5OC(CO)C(O)C(O)C5O)[C@@](C)(C=O)[C@@H]4CC[C@]32C)C1OC1OC(C)C(O)C(O)C1O (some centres unmarked) [Compound (2), sinocrassuloside VII] | then followed by Compound (2), Compound (4), Compound (3) and Compound (7) | strongest anti-hyperglycemia effect | 60% | stronger efficacy in raising levels muscle glycogen | decreased much obviously | stronger than glucobay | significantly decreased | better effect on up-regulating of glycogen levels and down-regulating of GSP levels; also recorded: superior to that of glucobay; also recorded: stronger than glucobay | – | – | – | – | – |
| COC(=O)C1OC(O[C@H]2CC[C@]3(C)[C@H]4C=CC5[C@@H]6CC(C)(C)CC[C@]6(C(=O)OC6OC(C)C(OC(=O)/C=C\c7ccc(C)cc7)C(OC(C)=O)C6OC6OC(C)C(O)C(O)C6O)[C@H](O)C[C@@]5(C)[C@]4(C)CC[C@H]3[C@]2(C)C=O)C(OC2OC(CO)C(O)C(O)C2O)C(OC2OCC(O)C(O)C2O)C1O (some centres unmarked) [Compound (4), sinocrassuloside IX] | then followed by Compound (2), Compound (4), Compound (3) and Compound (7) | followed by Compound (3) and (4) (cis-trans-isomers), and Compound (7) | 50% | weaker efficacy in raising level of muscle glycogen which had no statistical significant difference compared with that of the model group | – | – | – | – | except the Compound (4) group, mice in all groups showed obvious reduction in food intake | decreased significantly (p<0.05 or p<0.01, vs. model group), except Compound (4) group in week 1 | all treatment groups except Compound (4) had stronger anti-hyperglycemia effects than that of metformin | each treatment group, except the Compound (4) group, showed a significantly decrease | all groups except Compound (4) increased significantly |
